From PubChem BioAssay AID1508591

Details: rat; liver microsomes; pH 7.4; 15.0 min; 1.0 µM
`O=C(c1cccc(F)c1)N1CCC2(CCN(Cc3cc(C(F)(F)F)cc(C(F)(F)F)c3)CC2)CC1` showed a half-life greater than 30 min. Work on `Cc1ccc(S(=O)(=O)Nc2cc3c(cc2C(=O)Nc2nc(-c4ccccc4)cs2)OCO3)cc1` yielded a half-life of 6.7 min. Work on `COc1ccc(OC)c(-c2nnc3n2N=C(c2c(OC)cccc2OC)CS3)c1` yielded a half-life of 1.4 min. For `O=C(Nc1ncc(Cc2ccc(C(F)(F)F)cc2)s1)c1ccc(-c2cccnc2)o1`, the half-life was greater than 30 min. For `CCNC(=O)Nc1ncc(-c2cc(-c3c(C)cc(OC)cc3C)nc(-c3cnccn3)n2)s1`, the half-life was greater than 30 min. With `Cc1ccc(-c2cc3c(nn2)-c2ccccc2C3=O)cc1` the half-life was 3.4 min. For `Nc1ncnc2c1c(-c1cnc3[nH]ccc3c1)nn2C1CCCC1`, the half-life was 3.09 min. For `NCC(=O)Nc1cccc(-c2nn3c(=O)cc(N4CCNCC4)nc3s2)c1`, the half-life was greater than 30 min. `O=C(Nc1ccc(S(=O)(=O)Nc2nccs2)cc1)c1ccnc(-c2ccccc2)c1` gave a half-life greater than 30 min. With `CNC(=O)C1CCN(c2nc(-c3ccc(Br)cc3)cs2)CC1` the half-life was 26.2 min. Work on `N#Cc1ccc(C(=O)Nc2ccc(Cl)c(-c3nc4cc(Cl)ccc4o3)c2)c(F)c1` yielded a half-life greater than 30 min. In the case of `CCOc1ccc(CCNC(=O)c2cc3sccc3n2Cc2ccc(-n3cncn3)cc2)cc1OCC`, the half-life is reported as 4.3 min. `CN(C)c1cccc(-c2cnc(N3CCC(C(N)=O)CC3)nc2)c1` gave a half-life of 16.8 min. With `Nc1c(-c2ccccc2)cnc2c(-c3ccccc3)cnn12` the half-life was greater than 30 min. `COc1ccccc1-c1nnc2sc(-c3ccc(N(C)C)cc3)nn12` showed a half-life of 2.24 min. In the case of `Cc1cccc2nc(-c3ccccn3)c(Nc3ccc(F)cc3)n12`, the half-life is reported as 6.75 min. With `FC(F)(F)c1ccccc1-c1nc(NCc2ccc(Cl)cc2)c2ccccc2n1` the half-life was greater than 30 min. For `Cc1ccc(S(=O)(=O)Nc2cnccc2C(=O)Nc2nc(-c3ccc(Oc4ccccc4)cc3)cs2)cc1`, the half-life was 6.9 min. In the case of `CCc1cccc(-n2nnc(-c3nsc(NC(=O)c4cccc(OC)c4)n3)c2C)c1`, the half-life is reported as 12.8 min. Molecule `CC(C)Oc1cccc(-c2cnc(N3CCC(C(N)=O)CC3)s2)c1` has a half-life of 23 min. For `N[C@H]1CN(c2c(F)cc3c(=O)c(C(=O)O)cn(C4C[C@@H]4F)c3c2Cl)CC12CC2` (some centres undefined), the half-life was greater than 30 min. Work on `CC(C)COc1ccc(-c2csc(N3CCC(C(N)=O)CC3)n2)cc1` yielded a half-life of 7.23 min. `CC(C)c1c(-c2ccccc2)nc2c(C#N)c[nH]n2c1=O` gave a half-life greater than 30 min. In the case of `Cc1ccc(S(=O)(=O)Nc2cnccc2C(=O)Nc2nc(C3CCC3)cs2)cc1`, the half-life is reported as 5 min. Work on `COc1cccc(CNc2ccc(S(=O)(=O)Nc3ccccn3)cc2)c1O` yielded a half-life greater than 30 min. Molecule `O=C1NCc2cc(-c3cc4c(ccn4Cc4ccncc4)c(N4CCOCC4)n3)ccc21` has a half-life of 13.4 min. With `CNC(=O)c1nn(C)c2c1C(C)(C)Cc1cnc(Nc3ccc(N4CCN(C)CC4)cc3)nc1-2` the half-life was greater than 30 min. In the case of `Cc1cc(-c2nnc3n2CCCCC3)c(C)n1-c1ccc(F)cc1`, the half-life is reported as 3.2 min. Work on `CC1=C(C(=O)NCc2ccccc2)C(c2ccccc2Br)N=C(Nc2nc3ccccc3o2)N1` (centres undefined) yielded a half-life of 7 min. Work on `COc1ccccc1OCCNCC(O)COc1cccc2[nH]c3ccccc3c12` (centres undefined) yielded a half-life of 1.52 min. Molecule `COc1ccc(CN2C(=O)[C@@H]3C[C@@H](CN3Cc3cccs3)Oc3ccccc32)cc1` has a half-life of 1.2 min. For `O=S(=O)(Nc1nccs1)c1ccc(NCc2ccc(Br)cc2O)cc1`, the half-life was 5.4 min. Molecule `O=C(NC1CCCN(c2cc(-c3ccc(F)cc3)[nH]n2)C1)c1ccc2ncccc2c1` (centres undefined) has a half-life of 16.2 min. Molecule `Cc1nnn(C)c1-c1cnc2c3ccc(C(C)(C)O)cc3n([C@H](c3ccccc3)C3CCOCC3)c2c1` has a half-life greater than 30 min. Work on `O=C(Nc1ncccc1O)c1ccc(S(=O)(=O)Nc2ccccc2)cc1` yielded a half-life of 2.58 min. For `Cc1nc(Sc2nnnn2C)c2c(-c3ccccc3)csc2n1`, the half-life was 1.6 min. With `Cc1nn2c(c1-c1ccccc1-c1ccccc1)N(Cc1ccc(C(=O)O)s1)CCC2` the half-life was 7.81 min. Molecule `Cc1noc(C)c1Cc1ccc(C(=O)N2CCc3c(nc4cc(-c5ccccc5)[nH]n4c3=O)C2)o1` has a half-life of 3.38 min. With `Cc1ccc(S(=O)(=O)N[C@@H](Cc2ccccc2)C(=O)CCl)cc1` the half-life was 2.36 min. `O=[S+]([O-])(Nc1ccccc1)c1ccc(NCc2cccc(C(F)(F)F)c2F)cc1` showed a half-life of 9 min. `CCOC(=O)c1ccc(N2C(=O)c3n[nH]c(-c4cccs4)c3C2c2ccc(OCC)cc2)cc1` (centres undefined) showed a half-life of 5.72 min. `O=S(=O)(Nc1nc2ccccc2s1)c1ccc(NCc2cccc(Cl)c2O)cc1` gave a half-life greater than 30 min. For `CCOC(=O)c1ccc(-n2c(C)cc(-c3nnc4n3CCCCC4)c2C)cc1`, the half-life was 2.7 min. With `Cc1ccc(S(=O)(=O)Nc2cnccc2C(=O)Nc2nc(-c3cc(Br)cs3)cs2)cc1` the half-life was greater than 30 min. Work on `COc1cc2nccc(Oc3ccc(NC(=O)C4(C(=O)Nc5ccc(F)cc5)CC4)cc3)c2cc1OC` yielded a half-life greater than 30 min. Work on `COc1cc(OC)cc(-c2csc(N3CCC(C(N)=O)CC3)n2)c1` yielded a half-life of 2.09 min. Molecule `O=C1Nc2ccccc2/C1=C\c1ccc([N+](=O)[O-])cc1` has a half-life of 4.92 min. `O=[S+]([O-])(Nc1nccs1)c1ccc(NCc2cccc(Cl)c2)cc1` showed a half-life of 15 min. For `O=S(=O)(Nc1nc2ccccc2s1)c1ccc(NCc2ccc(Br)cc2O)cc1`, the half-life was greater than 30 min. `Nc1nc2c(s1)C(c1cccc(F)c1F)CC(=O)N2` (centres undefined) showed a half-life greater than 30 min. In the case of `CN1CC(CNC(=O)OCc2ccccc2)C[C@H]2c3cccc4c3c(cn4C)CC21` (some centres undefined), the half-life is reported as 14.3 min. With `C=C1C(=O)O[C@H]2[C@@H]1CCC(C)=CCC[C@@]1(C)O[C@@H]21` the half-life was 16.7 min. For `O=C1Nc2ccccc2/C1=C\c1ccc(C(=O)O)cc1`, the half-life was greater than 30 min. In the case of `O=C1CCCC2=C1C(c1ncccc1Br)N=C(Nc1nc3ccccc3o1)N2` (centres undefined), the half-life is reported as 11.4 min. For `OCCN1CCN(CCCN2c3ccccc3Sc3ccc(Cl)cc32)CC1`, the half-life was 4.34 min. Work on `COc1cccc(CNc2ccc(S(=O)(=O)Nc3cccc4ccccc34)cc2)c1O` yielded a half-life of 5.8 min. Molecule `O=C(Nc1ccc(Cl)c(S(=O)(=O)N2CCOCC2)c1)c1ccc(S(=O)(=O)N2CCOCC2)cc1` has a half-life of 6.4 min. `CS(=O)(=O)N1CCN(c2nc(-c3ccc(Br)cc3)cs2)CC1` gave a half-life greater than 30 min. With `Cc1c(O)ccc2c1OC(C)(C)CC2` the half-life was 3.9 min. For `Oc1c(CN2CCN(c3ccccn3)CC2)cc(Cl)c2cccnc12`, the half-life was 3.23 min. Molecule `Cc1ccnc(N=C(N)N2CCN(c3cccc(C(F)(F)F)c3)CC2)c1` has a half-life of 2.26 min. Work on `COc1ccc(OC)c(CNc2ncnc3onc(C)c23)c1` yielded a half-life of 5.68 min. `Cc1cc(N2CCN(c3ccccc3)CC2)nc(-n2nc(C)cc2C)n1` gave a half-life greater than 30 min. `C=CC(=O)Nc1cccc(Oc2nc(Nc3ccc(N4CCN(C)CC4)cc3)ncc2Cl)c1` gave a half-life of 3.06 min. `COc1ccc(-c2csc(N3CCC(C(N)=O)CC3)n2)cc1` showed a half-life of 4.68 min. With `COc1ccc(OC)c(N2C(=O)C(Cl)=C(N3CCCCC3)C2=O)c1` the half-life was 1.5 min. For `COC(=O)c1ccc([C@H]2c3[nH]c4ccccc4c3C[C@H](C(=O)OC)N2C(=O)CCl)cc1`, the half-life was 4.02 min. `N#Cc1nc(-c2cccc3ccccc23)oc1NC1COC1` showed a half-life of 28 min. In the case of `Oc1ccc(NCc2ccccc2OCc2ccccc2Cl)cc1`, the half-life is reported as 2.03 min. Molecule `Cc1ccc(S(=O)(=O)Nc2ccccc2C(=O)Nc2nc(-c3ccccc3)cs2)cc1` has a half-life of 2.4 min. With `Cc1ccc(S(=O)(=O)NC2CCCCC2)cc1` the half-life was 1 min. With `Cc1csc2nc(-c3cccc(NC(=O)c4ccccc4Cl)c3)cn12` the half-life was 0.9 min. In the case of `Fc1ccc(-c2ccc(Nc3nc(-c4ccncc4)nc4ccccc34)cc2F)c(Cl)c1`, the half-life is reported as 25 min. With `CCCCOc1ccc(CC(=O)NO)cc1` the half-life was greater than 30 min. With `CCCN1C(CC(C)C)=NS(=O)(=O)c2cc(NC(=O)c3ccco3)ccc21` the half-life was 9.21 min. With `O=C(Nc1ccc([S+](=O)([O-])Nc2nccs2)cc1)c1ccccn1` the half-life was 2.4 min. In the case of `CCN1CCN(c2ncc3c(n2)CCN(Cc2cc(Br)cs2)C3)CC1`, the half-life is reported as 2.7 min. With `CCOc1ccc(C2c3c(oc4ccc(C)cc4c3=O)C(=O)N2CCCN(C)C)cc1` (centres undefined) the half-life was 13.6 min. Molecule `CC1(C)CCC(CN2CCN(c3ccc(C(=O)NS(=O)(=O)c4ccc(NCC5CCOCC5)c([N+](=O)[O-])c4)c(Oc4cnc5[nH]ccc5c4)c3)CC2)=C(c2ccc(Cl)cc2)C1` has a half-life greater than 30 min. Molecule `Cc1cc(/C=C2/C(=O)Nc3ccccc32)cc(C)c1O` has a half-life of 11 min. Work on `Cc1cccc(NCc2ccc(O)c3ncccc23)c1` yielded a half-life of 2.2 min. With `CCCCCCCc1c(C)nc(N2CCOCC2)[nH]c1=O` the half-life was 3.5 min. For `CCCc1ccc(C(=O)NC(=O)c2ccccc2O)cc1`, the half-life was 2.37 min. Molecule `Clc1ccc(C2(c3ccc(-c4cn[nH]c4)cc3)CCNCC2)cc1` has a half-life greater than 30 min. `COc1ccc(NC(=O)c2cc(-c3ccc[nH]3)n[nH]2)cc1OC` showed a half-life greater than 30 min. `O=C(/C=C/c1cn(CC(O)CN2CCCCCC2)c2ccccc12)c1ccc(Br)cc1` (centres undefined) gave a half-life of 24.2 min. In the case of `CC(C)CN(C[C@@H](O)[C@H](Cc1ccccc1)NC(=O)O[C@@H]1CO[C@H]2OCC[C@H]21)S(=O)(=O)c1ccc(N)cc1`, the half-life is reported as 13.8 min. Molecule `O=C(Nc1ncc(Cc2ccc(C(F)(F)F)cc2)s1)c1ccc(-c2ccc([N+](=O)[O-])cc2)o1` has a half-life greater than 30 min. Work on `COc1cc(C(=O)N2CCN(c3cc(Cl)ccc3Cl)CC2)cc(OC)c1OC` yielded a half-life of 4.31 min. `CC1(C)C(=O)NC2=C1C(=O)C(=O)c1ccccc12` showed a half-life greater than 30 min. For `COc1cnccc1-c1nc(Nc2ccc(F)c(F)c2)c2ccccc2n1`, the half-life was greater than 30 min. With `CC[C@H]1CN2CCC3CC(OC)C(OC)CC3[C@@H]2C[C@@H]1C[C@H]1NCCC2=C1CC(OC)=C(O)C2` (some centres undefined) the half-life was greater than 30 min. In the case of `Fc1cc(Nc2nc(-c3ccncc3)nc3ccccc23)ccc1N1CCCCC1`, the half-life is reported as 5.9 min. `CC/C=C\CC1C(=O)CCC1CC(=O)OC` (centres undefined) gave a half-life greater than 30 min. Molecule `Fc1cc(Nc2nc(-c3ccncc3)nc3ccccc23)ccc1-c1cccc(OC(F)(F)F)c1` has a half-life greater than 30 min. In the case of `Cc1nc(Nc2n[nH]c3c2CN(C(=O)N[C@H](CN(C)C)c2ccccc2)C3(C)C)c2sccc2n1`, the half-life is reported as 21.9 min. Molecule `NC(=O)C1CCN(c2nc(-c3ccc4c(c3)OCCO4)cs2)CC1` has a half-life of 3.09 min. With `CC(=O)c1ccc(N2CCN(c3ccc(NC(=O)c4ccc(F)cc4)cc3C(=O)O)CC2)cc1` the half-life was greater than 30 min. For `COc1cc(-c2nc(-c3c(C)noc3C)cc3c2cc(C)n3CCN(C)C)ccn1`, the half-life was 19.7 min. `COc1ccc(NC(=O)c2[nH]c(C)c(C(C)=O)c2C)cc1S(=O)(=O)Nc1cccc(C#N)c1` gave a half-life of 15 min. With `N[C@@H](CSCc1ccccc1)C(=O)O` the half-life was greater than 30 min. `FC(F)(F)c1cccc(Sc2nc(-c3ccccc3)nnc2C(F)(F)F)c1` gave a half-life of 11 min. With `CCCc1ccc(NC(=O)c2ccc3c(c2)NC(=O)CS3)cc1` the half-life was 1.5 min. `Clc1ccccc1-c1nc(NCc2ccc(-c3cccnc3)cc2)c2ccccc2n1` gave a half-life of 6.99 min.
